Like-named read-outs stand apart in the source and are kept apart here.
Key:
human EAA4a receptor [1] = target: T1, human EAA4a receptor (Homo sapiens, UniProt Q13002); format: cell-based; design: transported to the cell surface in mature form, lacking the signal peptide and consisting of 877 amino acids; expressed in transfected cells; host or cells: Xenopus oocytes (stage V or VI), nuclear injection of pcDNAI/humEAA4a DNA; details: for oocyte response to agonist: tested at -60, -80 and -100 mV
Method: Xenopus oocytes (stage V or VI) were harvested and the nucleus of the oocytes was injected with 5 ng of pcDNAI/humEAA4a DNA.

human EAA4a receptor [2] = target: T1, human EAA4a receptor; details: COS cell membranes
Method: Transfected cells in the frozen state were resuspended in ice-cold distilled water using a hand homogenizer and centrifuged for 20 miutes at 50,000 g. The supernatant was discarded and the membrane pellet stored frozen at −70° C.
Proteins were determined using the Pierce Reagent with BSA as standard.
Binding assays were then performed, using an amount of COS-derived membrane equivalent to 25-100 ug as judged by protein determination and selected radiolabelled ligand. […] Samples were incubated on ice for 60 minutes, and bound and free ligand were then separated by rapid filtration using a PHD cell harvester and GF/B filters pre-soaked in ice-cold 0.3% polyethyleneimine. Filters were washed twice in 4 ml of the cold incubation buffer, then placed in scintillation vials with 5 ml of Beckman Ready-Protein Plus scintillation cocktail for counting.
Samples were incubated on ice for 60 minutes in plastic minivials, and bound and free ligand were separated by centrifugation for 30 minutes at 50,000 g. Pellets were washed twice in 4 ml of the cold incubation buffer, then 5 ml of Beckman Ready-Protein Plus scintillation cocktail was added, for counting.

T1 sequence (Q13002 32-908): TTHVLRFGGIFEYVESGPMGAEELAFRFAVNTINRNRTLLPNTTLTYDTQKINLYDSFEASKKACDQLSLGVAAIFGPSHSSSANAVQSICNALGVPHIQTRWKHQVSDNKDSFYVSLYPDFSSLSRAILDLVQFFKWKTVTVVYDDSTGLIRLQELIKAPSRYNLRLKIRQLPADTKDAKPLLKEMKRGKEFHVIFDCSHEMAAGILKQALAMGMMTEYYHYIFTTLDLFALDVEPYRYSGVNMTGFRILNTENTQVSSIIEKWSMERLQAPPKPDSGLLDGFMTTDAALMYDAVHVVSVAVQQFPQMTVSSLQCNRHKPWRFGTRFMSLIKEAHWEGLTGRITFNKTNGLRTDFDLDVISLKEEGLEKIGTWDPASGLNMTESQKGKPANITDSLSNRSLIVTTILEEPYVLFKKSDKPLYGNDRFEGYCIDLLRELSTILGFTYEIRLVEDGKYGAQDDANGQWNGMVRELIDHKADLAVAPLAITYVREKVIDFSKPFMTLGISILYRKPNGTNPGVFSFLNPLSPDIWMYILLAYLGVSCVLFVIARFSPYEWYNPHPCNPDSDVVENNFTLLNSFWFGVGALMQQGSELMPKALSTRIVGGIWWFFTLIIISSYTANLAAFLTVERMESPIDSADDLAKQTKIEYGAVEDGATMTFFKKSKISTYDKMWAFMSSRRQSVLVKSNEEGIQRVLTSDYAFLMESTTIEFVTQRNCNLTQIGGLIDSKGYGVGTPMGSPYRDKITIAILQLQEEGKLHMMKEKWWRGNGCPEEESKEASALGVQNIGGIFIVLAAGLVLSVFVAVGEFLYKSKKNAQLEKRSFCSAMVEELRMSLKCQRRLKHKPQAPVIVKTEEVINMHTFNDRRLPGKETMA

Compound	oocyte response to agonist (human EAA4a receptor [1]; 10^-4M)	oocyte response to agonist (human EAA4a receptor [1]; NMDA 10^-4M with glycine 10^-6M)	binding to EAA4a receptor (human EAA4a receptor [2])	effect on the dose/response curve for L-glutamate (human EAA4a receptor [1]; DNQX 2×10^-6M, FIG. 10)	effect on the glutamate response (human EAA4a receptor [1]; oocytes, FIG. 8)
CN[C@H](CC(=O)O)C(=O)O [NMDA, N-methyl-D-aspartate]	did not respond	did not respond	little or no demonstrable binding		
O=C1N=c2cc([N+](=O)[O-])c([N+](=O)[O-])cc2=NC1=O [DNQX, 6,7-dinitroquinoxaline-2,3-dione]				parallel shift of the dose/response curve for L-glutamate to the right	blocked the glutamate response

— patent publication US6376200B1, “Kainate-binding, human CNS receptors of the EAA4 family” (priority 1992, dated 2002)
